16 compounds from US12187723B2 (BRISTOL-MYERS SQUIBB COMPANY, priority 2019, dated 2025) can be followed below.

For one assay, the target named is T1, human TLR7 (Homo sapiens, UniProt Q9NYK1).
T1 construct: host or cells: HEK-Blue cells
T1 sequence (Q9NYK1 27-1049): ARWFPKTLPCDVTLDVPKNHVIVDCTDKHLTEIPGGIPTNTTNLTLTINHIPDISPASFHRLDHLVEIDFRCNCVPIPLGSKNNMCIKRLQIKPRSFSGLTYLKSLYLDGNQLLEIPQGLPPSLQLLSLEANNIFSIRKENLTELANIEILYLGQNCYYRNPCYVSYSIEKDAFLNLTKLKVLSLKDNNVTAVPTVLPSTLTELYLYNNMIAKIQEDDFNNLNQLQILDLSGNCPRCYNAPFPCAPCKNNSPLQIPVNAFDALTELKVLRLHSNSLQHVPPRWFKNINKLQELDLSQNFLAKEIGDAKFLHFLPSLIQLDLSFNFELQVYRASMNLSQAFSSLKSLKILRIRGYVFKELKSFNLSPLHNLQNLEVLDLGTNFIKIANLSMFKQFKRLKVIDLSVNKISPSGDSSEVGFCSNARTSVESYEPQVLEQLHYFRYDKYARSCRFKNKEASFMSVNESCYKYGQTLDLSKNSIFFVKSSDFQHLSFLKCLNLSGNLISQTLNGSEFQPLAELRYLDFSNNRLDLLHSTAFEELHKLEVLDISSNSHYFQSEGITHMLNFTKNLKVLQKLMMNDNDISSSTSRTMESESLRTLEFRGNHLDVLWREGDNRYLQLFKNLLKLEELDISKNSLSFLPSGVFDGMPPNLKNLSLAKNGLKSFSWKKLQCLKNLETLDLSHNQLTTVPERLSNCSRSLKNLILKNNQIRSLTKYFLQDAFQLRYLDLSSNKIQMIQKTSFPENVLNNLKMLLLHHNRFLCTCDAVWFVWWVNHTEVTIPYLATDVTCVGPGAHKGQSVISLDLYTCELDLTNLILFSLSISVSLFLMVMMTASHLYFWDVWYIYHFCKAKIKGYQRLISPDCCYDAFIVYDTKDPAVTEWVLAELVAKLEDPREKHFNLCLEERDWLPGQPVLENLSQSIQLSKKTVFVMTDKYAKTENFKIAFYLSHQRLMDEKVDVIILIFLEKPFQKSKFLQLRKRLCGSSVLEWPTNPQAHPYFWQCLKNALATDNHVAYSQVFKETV
Put plainly: TLR7 inhibition reporter assay (HEK-Blue SEAP). In kind it is cell-based. As to conditions: HEK-Blue cells overexpressing human TLR7, gardiquimod 7.5 μM, 22 hour incubation. In a few lines: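 HEK-Blue reporter cells (15,000/well TLR7, 20,000 TLR8) exposed to compound over 0.05 nM–50 μM, agonist-stimulated (R848 for TLR8, gardiquimod for TLR7), 22 h at 37 °C, 5% CO2. SEAP read with HEK-Blue Detection; % inhibition relative to agonist-plus-DMSO and known-inhibitor controls.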

For another assay, the target named is T2, human TLR8 (Homo sapiens, UniProt Q9NR97).
T2 construct: host or cells: HEK-Blue cells
T2 sequence (Q9NR97 27-1041): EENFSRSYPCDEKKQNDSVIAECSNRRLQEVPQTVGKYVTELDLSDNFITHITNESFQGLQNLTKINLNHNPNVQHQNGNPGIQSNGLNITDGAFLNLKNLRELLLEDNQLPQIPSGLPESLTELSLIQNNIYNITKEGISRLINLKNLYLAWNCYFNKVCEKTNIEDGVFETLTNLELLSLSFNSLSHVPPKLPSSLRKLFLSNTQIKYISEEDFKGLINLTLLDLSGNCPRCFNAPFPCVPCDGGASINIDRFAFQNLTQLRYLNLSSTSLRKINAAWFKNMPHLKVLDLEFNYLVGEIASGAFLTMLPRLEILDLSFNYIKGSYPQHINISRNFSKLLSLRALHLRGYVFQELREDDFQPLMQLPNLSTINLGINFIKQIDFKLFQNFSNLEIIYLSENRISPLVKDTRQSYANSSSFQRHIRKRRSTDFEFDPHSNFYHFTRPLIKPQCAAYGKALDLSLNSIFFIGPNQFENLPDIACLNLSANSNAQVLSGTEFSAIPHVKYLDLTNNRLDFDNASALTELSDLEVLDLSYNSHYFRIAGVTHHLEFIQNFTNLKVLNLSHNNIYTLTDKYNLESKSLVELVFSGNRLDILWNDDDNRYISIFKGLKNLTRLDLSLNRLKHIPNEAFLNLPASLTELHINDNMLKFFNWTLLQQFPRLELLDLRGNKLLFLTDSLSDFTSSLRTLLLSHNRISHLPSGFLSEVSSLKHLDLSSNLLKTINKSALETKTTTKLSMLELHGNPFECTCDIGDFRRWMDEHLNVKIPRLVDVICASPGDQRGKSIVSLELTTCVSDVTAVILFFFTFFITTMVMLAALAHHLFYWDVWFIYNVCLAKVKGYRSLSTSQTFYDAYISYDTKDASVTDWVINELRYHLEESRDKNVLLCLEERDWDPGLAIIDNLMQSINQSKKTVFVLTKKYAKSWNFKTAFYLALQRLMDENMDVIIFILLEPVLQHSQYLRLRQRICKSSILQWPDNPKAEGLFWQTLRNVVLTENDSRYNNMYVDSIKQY
Description: TLR8 inhibition reporter assay (HEK-Blue SEAP). It is filed as cell-based. Particulars: HEK-Blue cells overexpressing human TLR8, R848 15.9 μM, 22 hour incubation. The procedure, abridged: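 Agonists used: gardiquimod 7.5 μM (TLR7), R848 15.9 μM (TLR8), ODN2006 5 nM (TLR9), added after 30 min room-temperature compound pre-treatment (0.05 nM–50 μM) of receptor-overexpressing HEK-Blue cells. SEAP reporter (NF-κB/AP-1 driven) read after 22 h at 37 °C; inhibition scaled between agonist+DMSO and reference-inhibitor wells.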

The IC50 is the concentration that gives 50% inhibition. Low values mean higher potency, high ones lower potency. On to `CCN1CCC(n2c(=O)[nH]c3cc(-c4cc(OC)c5ncnn5c4)c(C)cc32)CC1` [Example 9, 1-(1-ethylpiperidin-4-yl)-5-(8-methoxy-[1,2,4]triazolo[1,5-a]pyridin-6-yl)-6-methyl-1,3-dihydro-2H-benzo[d]imidazol-2-one], for which the IC50 against human TLR7 stood at 70.8 nM; against human TLR8, 92.7 nM.
The corresponding values for `COc1cc(-c2cc3[nH]c(=O)n(C4CCN(CC5CCOCC5)CC4)c3cc2C(C)C)cn2ncnc12` [Example 159, 6-isopropyl-5-(8-methoxy-[1,2,4]triazolo[1,5-a]pyridin-6-yl)-1-(1-((tetrahydro-2H-pyran-4-yl)methyl)piperidin-4-yl)-1,3-dihydro-2H-benzo[d]imidazol-2-one] are 7.23 nM and 4.52 nM.
Consider `CCC(CC)CN1CCC[C@H](n2c(=O)[nH]c3cc(-c4cc(OC)c5ncnn5c4)c(C(C)C)cc32)C1` [Example 130, (S)-1-(1-(2-ethylbutyl)piperidin-3-yl)-6-isopropyl-5-(8-methoxy-[1,2,4]triazolo[1,5-a]pyridin-6-yl)-1,3-dihydro-2H-benzo[d]imidazol-2-one], for which the IC50 against human TLR7 turned out to be 31.1 nM; at human TLR8 it was 8.52 nM.
For `COc1cc(-c2cc3[nH]c(=O)n([C@H]4CCCN(CC5CC5)C4)c3cc2C(C)C)cn2ncnc12` [Example 127, (S)-1-(1-(cyclopropylmethyl)piperidin-3-yl)-6-isopropyl-5-(8-methoxy-[1,2,4]triazolo[1,5-a]pyridin-6-yl)-1,3-dihydro-2H-benzo[d]imidazol-2-one] the same measures were 14.3 nM and 2.8 nM.
For `COc1cc(-c2cc3[nH]c(=O)n([C@H]4CCCN(C)C4)c3cc2C(C)C)cn2ncnc12` [Example 119, (S)-6-isopropyl-5-(8-methoxy-[1,2,4]triazolo[1,5-a]pyridin-6-yl)-1-(1-methylpiperidin-3-yl)-1,3-dihydro-2H-benzo[d]imidazol-2-one] the same measures were 31.8 nM and 2.37 nM.
With `COc1cc(-c2cc3[nH]c(=O)n(C4CCN(CC5CC5)CC4)c3cc2C(C)C)cn2ncnc12` [Example 161, 1-(1-(cyclopropylmethyl)piperidin-4-yl)-6-isopropyl-5-(8-methoxy-[1,2,4]triazolo[1,5-a]pyridin-6-yl)-1,3-dihydro-2H-benzo[d]imidazol-2-one], the IC50 against human TLR7 was determined as 7.28 nM; against human TLR8 it was 6.04 nM.
The corresponding values for `CCN1CCC(n2c(=O)[nH]c3cc(-c4cc(C)c5ncnn5c4)c(C)cc32)CC1` [Example 6, 1-(1-ethylpiperidin-4-yl)-6-methyl-5-(8-methyl-[1,2,4]triazolo[1,5-a]pyridin-6-yl)-1,3-dihydro-2H-benzo[d]imidazol-2-one] are 38.7 nM and 46.3 nM.
Turning to `Cc1cc(-c2ccc3c(c2)[nH]c(=O)n3C2CCN(C(C)C)CC2)cn2ncnc12` [Example 5, 1-(1-isopropylpiperidin-4-yl)-5-(8-methyl-[1,2,4]triazolo[1,5-a]pyridin-6-yl)-1,3-dihydro-2H-benzo[d]imidazol-2-one], the IC50 was 1550 nM at human TLR7 and over 3130 nM against human TLR8.
The corresponding values for `Cc1c(-c2cc3[nH]c(=O)n([C@@H]4CCCN(C(C)C)C4)c3cc2C(C)C)cn2ncnc2c1C` [Example 145, (R)-5-(7,8-dimethyl-[1,2,4]triazolo[1,5-a]pyridin-6-yl)-6-isopropyl-1-(1-isopropylpiperidin-3-yl)-1,3-dihydro-2H-benzo[d]imidazol-2-one] are 3.7 nM and 2.1 nM.
The corresponding values for `COc1cc(-c2cc3[nH]c(=O)n([C@H]4CCCN(C5COC5)C4)c3cc2C(C)C)cn2ncnc12` [Example 123, (S)-6-isopropyl-5-(8-methoxy-[1,2,4]triazolo[1,5-a]pyridin-6-yl)-1-(1-(oxetan-3-yl)piperidin-3-yl)-1,3-dihydro-2H-benzo[d]imidazol-2-one] are 125 nM and 5.56 nM.
For `COc1cc(-c2cc3[nH]c(=O)n(C4CCN(C5CCC5)CC4)c3cc2C(C)C)cn2ncnc12` [Example 156, 1-(1-cyclobutylpiperidin-4-yl)-6-isopropyl-5-(8-methoxy-[1,2,4]triazolo[1,5-a]pyridin-6-yl)-1,3-dihydro-2H-benzo[d]imidazol-2-one] the same measures were 17.9 nM and 4.77 nM.
As for `CCC(CC)CN1CCC(n2c(=O)[nH]c3cc(-c4cc(OC)c5ncnn5c4)c(C(C)C)cc32)CC1` [Example 165, 1-(1-(2-ethylbutyl)piperidin-4-yl)-6-isopropyl-5-(8-methoxy-[1,2,4]triazolo[1,5-a]pyridin-6-yl)-1,3-dihydro-2H-benzo[d]imidazol-2-one], the half-inhibitory concentration (IC50) at human TLR7 came to 10.9 nM; against human TLR8, 7.03 nM.
The corresponding values for `Cc1cc(-c2ccc3c(c2)[nH]c(=O)n3C2CCN(C(=O)CN(C)C)CC2)cn2ncnc12` [Example 102, 1-(1-(dimethylglycyl)piperidin-4-yl)-5-(8-methyl-[1,2,4]triazolo[1,5-a]pyridin-6-yl)-1,3-dihydro-2H-benzo[d]imidazol-2-one] are over 3130 nM and over 3130 nM.
For the compound `Cc1cc2c(cc1-c1cc(C)c3ncnn3c1)[nH]c(=O)n2[C@@H]1CCCN(C(=O)CN(C)C)C1` [Example 104, (R)-1-(1-(dimethylglycyl)piperidin-3-yl)-6-methyl-5-(8-methyl-[1,2,4]triazolo[1,5-a]pyridin-6-yl)-1,3-dihydro-2H-benzo[d]imidazol-2-one], the 50% inhibitory concentration (IC50) against human TLR7 came out at 71 nM; on human TLR8, 47.6 nM.
The corresponding values for `CCC(CC)CN1CCC[C@@H](n2c(=O)[nH]c3cc(-c4cn5ncnc5c(C)c4C)c(C(C)C)cc32)C1` [Example 151, (R)-5-(7,8-dimethyl-[1,2,4]triazolo[1,5-a]pyridin-6-yl)-1-(1-(2-ethylbutyl)piperidin-3-yl)-6-isopropyl-1,3-dihydro-2H-benzo[d]imidazol-2-one] are 11 nM and 21.7 nM.
Consider `Cc1cc2c(cc1-c1cc(C)c3ncnn3c1)[nH]c(=O)n2[C@@H]1CCCN(CC(=O)N(C)C)C1` [Example 95, (R)—N,N-dimethyl-2-(3-(6-methyl-5-(8-methyl-[1,2,4]triazolo[1,5-a]pyridin-6-yl)-2-oxo-2,3-dihydro-1H-benzo[d]imidazol-1-yl)piperidin-1-yl)acetamide], for which the IC50 amounted to 117 nM against human TLR7 and 83.4 nM at human TLR8.
